Earlier results as cited in patent US11446359B2, “Systems and methods for cardiac plexus neuromodulation” (Tulavi Therapeutics, Inc., priority 2015, dated 2022).

Legend:
[1] = system: asthma
[2] = system: thoracic sympathetic ganglia and rami
[3] = system: lumbar chain; conditions: remaining 4 required a second block
[4] = system: asthma; remark: listed apart in the source
[5] = system: sympathetic ganglia
[6] = 2.5 ml 0.25% with epinephrine
[7] = in vivo
[8] = system: axons and Schwann cells; conditions: in vivo

CCO [absolute alcohol, ethanol]
patients with complete disappearance of asthma ([1]; case studies, n=5, 2.5 cc absolute alcohol per injection): 100%
cases with complete relief ([1]; further work, 13/18 cases): 72%
patients with complete relief ([2]; 23 cases): 75%
cases with cure or dramatic improvement in asthma ([2]; severe intractable asthma cases (Levin 1935)): 75%
patients that required one injection only [3]: 19/23
patients free of asthma ([4]; case studies, n=3, 1 cc absolute alcohol): 100%
cases that obtained complete relief ([4]; further cases): 80%

C[C@H](CCCC(C)(C)O)[C@H]1CC[C@H]2[C@@H]3CC=C4C[C@@H](O)CC[C@]4(C)[C@H]3CC[C@]12C [25-OH-cholesterol]
relative potency among cholesterol oxides [5]: most potent

CCCCN1CCCCC1C(=O)Nc1c(C)cccc1C (centres unmarked) [Marcaine]
duration of relief [6]: 1 to 10 days
duration of relief, median [6]: 4 days

Oc1ccccc1 [phenol]
bilateral sensory blockade [7]: 1.3%
intrathecal injection observed [7]: 0.52%
transient hypertension [7]: 4.6%
time at which regeneration in the periphery may begin [8]: 2 weeks
